“Also recorded” adds a separate entry of the source. Like-named read-outs stand apart in the source and are kept apart here. Peptide text beside a SMILES is read from it.
Legend:
Baculovirus-Luc = conditions: for EC50: read-out: EC50, inhibition of reporter gene expression
adenovirus type 5 = type: cell-based
Method: Luciferase from cell lysates was recorded 24 hours after infection. Results shown are luciferase levels expressed as % of control from duplicate wells. Luciferase was detected using Luciferase Assay System as described in Materials & Methods of the main article.

NIH/3T3 cells = assay: Cytotoxicity, MultiTox-Glo Multiplex; type: cell-based; conditions: 72 h; Figure 4B, triplicates
Method: (§1) Vero, MRC-5, and CV-1 cells were cultured in Dulbecco’s Modified Eagle Medium (DMEM; ThermoFisher, Waltham, MA, United States) and Jurkat cells were cultured in RPMI 1640 medium containing 10% fetal calf serum, 100 U/ml penicillin, and 0.1 mg/ml streptomycin (ThermoFisher). HEK293 and NIH/3T3 cells were adapted to growth in CO2-independent medium supplemented with 10% fetal calf serum, 2 mM glutamine, and 1% antibiotic-antimycotic (ThermoFisher) and cultivated in a humidified atmosphere at 37°C. […] Viability was analyzed using CellTiter-Glo® 2.0 Assay according to the manufacturer’s protocol (Promega). […] Cytotoxicity was analyzed using MultiTox-Glo Multiplex Cytotoxicity Assay according to the manufacturer’s protocol (Promega).

[1] = test system: vaccinia virus wild-type (strain Western Reserve); conditions: Figure 9B
adenovirus 5 = type: cell-based
[2] = test system: HSV-1 F, HSV-1 703, HSV-1 601; type: cell-based, herpes simplex virus; conditions: for EC50: Figure 8A, triplicate wells
GAPDH mRNA, MRC-5 cells = assay: GAPDH mRNA in cells of the HCMV replicon assay; conditions: at the highest concentration of 20 μM; no effect below
[3] = test system: RSV RNA (nucleocapsid protein gene); assay: RSV RNA by real-time PCR; type: cell-based, Respiratory syncytial virus
Method: Lysates from infected cells were examined for the presence of RSV RNA by real-time PCR using ViroReal® RSV (RTGM20V; Ingenetix GmbH, Austria) detecting the nucleocapsid protein gene of RSV and normalized to GAPDH mRNA. Calculated EC50 was 0.8 µM for TAT-I24 with 80% inhibition at the highest concentration (20 µM). Ribavirin was included as control.

VZV transcripts = VZV transcripts by real-time PCR; type: cell-based, varicella zoster virus; conditions: lysates of infected cells, normalized to GAPDH mRNA; Figure S8; read-out: EC50, reduction of VZV transcripts
Method: VZV transcripts were analysed from lysates of infected cells by real-time PCR using ViroReal® VZV (RTGM20V; Ingenetix GmbH, Austria) and normalized to GAPDH mRNA.

HEK293 cells [4] = assay: Morphology of HEK293 cells; type: cell-based
HEK293 cells [5] = assay: Cell viability, CellTiter-Glo 2.0; type: cell-based; conditions: 96 h incubation; Figure 2B, triplicate wells
Method: as §1

[6] = test system: firefly luciferase reporter gene under control of the CMV promoter, HEK293 cells; assay: Luciferase expression from transfected CMV promoter plasmid (Superfect); type: cell-based; conditions: HEK293, Figure 1D, TAT (47–57) alone
Method: Briefly, for one well of a 48-well plate, 100 ng DNA and 1 μl Superfect reagent were mixed by pipetting followed by addition of 12.5 μl of serum‐ and antibiotic-free medium. After brief vortexing and further incubation at room temperature for 15 min, 112.5 μl medium containing 10% fetal calf serum and antibiotics were added. For transfection in the presence of peptides, a transfection mixture of DNA, Superfect reagent, and serum-and antibiotic-free medium were prepared for the required number of wells. From this mixture, 25 μl aliquots were made and 0.5 μl peptides (10 mM each) added to each aliquot, vortexed briefly, and incubated for 15 min at room temperature. Then, 225 μl of medium containing 10% fetal calf serum was added and 125 μl applied per well of duplicate wells. For other types of multi-well plates, volumes were adapted according to the growth area of the wells.

adenovirus 19a/64 = assay: Replicon assay (AAV-GLuc-3B), A549 cells, adenovirus 19a/64; type: cell-based; conditions: A549, MOI 1.0, at the concentrations used; Figures 3D, S3A
HCMV TB40 = assay: Replicon assay (AAV-GLuc-3B), MRC-5 cells, HCMV; type: cell-based, human cytomegalovirus; conditions: MRC-5, 3 days; Figure 7A, TAT (48–60)
TZM-bl reporter cells = assay: Reporter gene expression in non-infected TZM-bl cells; conditions: 48 hours after treatment; Figure S7
RSV (strain A2) = assay: RSV cytopathic effect; type: cell-based, Respiratory syncytial virus A; conditions: human Hep2 cells, pre-treated, infected 2 hrs at 37°C, 3 days, microscopy
Method: Respiratory syncytial virus (RSV): Human Hep2 cells were pre-treated with peptides and infected with cell-free RSV Stock (strain A2) for 2 hrs at 37°C. Medium was then removed and unabsorbed virus removed by washing. Medium containing peptide dilutions was then added to cells.

HSV-1 UL30 gene = assay: HSV-1 UL30 transcripts by real-time PCR; conditions: cells from the replicon assay; Figures 8B, S6C
MCMV S-mCherry-SCP = MCMV S-mCherry-SCP replication, microscopy; type: cell-based, murine cytomegalovirus; conditions: NIH/3T3, various concentrations, 72 h; Figure 4C
Method: For analysis of MCMV replication, NIH/3T3 cells were seeded at a density of 2 × 10^4 cells/well of ibiTreat eight-well chambers (ibidi, Germany). On the next day, cells were treated with peptides and infected with murine CMV S-mCherry-SCP ([Bosse et al., 2012]) at a MOI 0.2 for 72 h before fixation with 5% formaldehyde and staining of nuclei with DAPI. Microscopic examination was performed using a Live Cell Video Microscope (Leica Microsystems).

influenza A PR8 = assay: Influenza A plaque-formation assay; conditions: MDCK cells, three days, at the concentrations used
murine CMV (MCMV) = type: cell-based, murine cytomegalovirus; conditions: NIH/3T3, MOI 0.5, 72 h; Figures 4A, S4A
Method: NIH/3T3 cells were seeded at a density of 2 × 10^4 cells/well of a 96-well plate and allowed to attach overnight. On the next day, medium was removed and replaced by medium containing peptide dilutions. Then, murine CMV (MCMV) expressing firefly luciferase ([Trilling et al., 2011]) was added to the cells at a MOI of 0.5 with aid of centrifugal enhancement at 800 × g for a total of 30 min.
Virus adsorption was performed by addition of MCMV expressing luciferase at a MOI of 0.5 with centrifugal enhancement at +4°C and further incubation at +4°C for 60 min before removal of unabsorbed virus and three times washing of cells with cold medium. […] After 72 h incubation at 37°C, luciferase levels were determined from cell lysates as described above.
In another setting, NIH/3T3 cells were preincubated with TAT-I24 at concentrations of 1 and 10 μM for 1, 3, and 6 h followed by removal of peptide and 3x washing with medium. […] After 72 h, luciferase levels were determined from cell lysates as described above.
A, NIH/3T3 cells were seeded at a density of 2 x 10^4 cells/well of a 96-well plate and treated on the next day with increasing concentrations of I24 or TAT-I24 and infected with MCMV (MOI = 0.5). After 72 hrs, luciferase was determined from cell lysates. Results shown are luciferase levels expressed as % of control from duplicate wells. […] Plaque formation was determined after 5 days. […]

adenovirus 4 = assay: Replicon assay (AAV-GLuc-3B), A549 cells, adenovirus 4; type: cell-based; conditions: A549, MOI 1.0, at the concentrations used; Figures 3D, S3A
Varicella zoster virus = assay: VZV cytopathic effect; conditions: human fibroblasts, pre-treated, infected 1 h, three days, microscopy

Q: For YGRKKRRQRRRC [TAT-C], which “inhibition of luciferase expression” value (Baculovirus-Luc; HEK293, at the highest tested concentration of 20 μM, Figure 2E) is on record?
A: only partial inhibition

Q: With `CC(C)C[C@H](NC(=O)[C@H](CS)NC(=O)[C@H](CCC(N)=O)NC(=O)[C@@H]1CCCN1C(=O)[C@@H]1CCCN1C(=O)[C@H](CCCNC(=N)N)NC(=O)[C@H](CCCNC(=N)N)NC(=O)[C@H](CCCNC(=N)N)NC(=O)[C@H](CCC(N)=O)NC(=O)[C@H](CCCNC(=N)N)NC(=O)[C@H](CCCNC(=N)N)NC(=O)[C@H](CCCCN)NC(=O)[C@H](CCCCN)NC(=O)[C@H](CCCNC(=N)N)NC(=O)CN)C(=O)N[C@@H](C)C(=O)N[C@@H](Cc1ccccc1)C(=O)N[C@@H](Cc1ccc(O)cc1)C(=O)N[C@@H](C)C(=O)N[C@@H](CS)C(=O)N[C@@H](Cc1ccccc1)C(=O)N[C@@H](CS)C(=O)O` [TAT-I24] (H-GRKKRRQRRRPPQCLAFYACFC-OH) as the molecule, how does the EC50 (adenovirus type 5; HEK293, adenovirus-GFP-Luc, 24 h, single value of Figure 3A (duplicate wells), read-out: EC50, inhibition of reporter gene expression) read?
A: 3140 nM

Q: And the “cytotoxic effects (viable and dead cells)” value (NIH/3T3 cells)?
A: No cytotoxic effects

Q: What about the EC50 ([1]; read-out: EC50, inhibition of VACV wt replication, CV-1, MOI 0.2, 1 h preincubation, 24 h, TCID50, two independent experiments) of the same molecule?
A: 790 nM

Q: And the “inhibition of reporter gene expression” value (Baculovirus-Luc; HEK293, peptide added together with baculovirus, 24 h, Figure 2A)?
A: > 95%

Q: What about the EC50 (Baculovirus-Luc; HEK293, MOI 5, peptide added together with baculovirus, 24 h, Figure 2A, duplicate wells) of the same molecule?
A: 170 nM

Q: What about the EC50 (adenovirus 5; A549, MOI 1.0, Gaussia luciferase after 24 h, Figure 3D, triplicate wells, read-out: EC50, inhibition of replication) of the same molecule?
A: 3250 nM

Q: What about the EC50 ([2]; HSV1 601 (aciclovir-sensitive isolate)) of the same molecule?
A: 370 nM

Q: What about the EC50 ([2]; HSV1 703 (aciclovir-resistant isolate)) of the same molecule?
A: 910 nM

Q: What about the EC50 ([2]; HSV-1 F) of the same molecule?
A: 1930 nM

Q: What about the “GAPDH mRNA levels” value (GAPDH mRNA, MRC-5 cells) of the same molecule?
A: some reduction

Q: And the “inhibition of RSV RNA” value ([3]; at the highest concentration (20 µM))?
A: 80%

Q: What about the EC50 ([3]; lysates from infected cells, normalized to GAPDH mRNA, Figure S9) of the same molecule?
A: 800 nM

Q: And the EC50 (VZV transcripts)?
A: 3300 nM

Q: And the “effect on mock infected CV-1 cells” value (CV-1 cells)?
A: No effect

Q: What about the “effects on CV-1 cell attachment” value (CV-1 cells; at higher dosages (20 and 6.6 μM)) of the same molecule?
A: some effects

Q: What about the “concentrations at which some morphological changes were observed” value (HEK293 cells [4]) of the same molecule?
A: > 10 μM

Q: What about the “effects on HEK293 cell viability” value (HEK293 cells [5]) of the same molecule?
A: no effects

Q: Which EC50 (Baculovirus-Luc; HEK293, Figure 2E, triplicate wells) does the source give for `CC(C)C[C@H](NC(=O)[C@H](CS)NC(=O)[C@H](Cc1ccc(O)cc1)NC(=O)[C@@H]1CCCN1C(=O)[C@H](CC(=O)O)NC(=O)[C@H](CCC(=O)O)NC(=O)[C@@H](NC(=O)[C@H](CCCCN)NC(=O)[C@H](CCCNC(=N)N)NC(=O)[C@H](CCCCN)NC(=O)[C@H](CCCCN)NC(=O)[C@H](CCCCN)NC(=O)[C@@H]1CCCN1)C(C)C)C(=O)N[C@@H](C)C(=O)N[C@@H](Cc1ccccc1)C(=O)N[C@@H](Cc1ccc(O)cc1)C(=O)N[C@@H](C)C(=O)N[C@@H](CS)C(=O)N[C@@H](Cc1ccccc1)C(=O)N[C@@H](CS)C(=O)O` [SV40 NLS-I24] (H-PKKKRKVEDPYCLAFYACFC-OH) here?
A: 1000 nM

Q: What does the source list for YGRKKRRQRRR [TAT (47–57)]?
A: effect on reporter gene expression [6]: ineffective; effect on luciferase levels (Baculovirus-Luc; HEK293, 24 h, Figure 2A (TAT = TAT (47–57))): did not affect

Q: How did the “effects on HEK293 cell viability” value (HEK293 cells [5]) turn out when `CC(C)C[C@H](NC(=O)[C@@H](N)CS)C(=O)N[C@@H](C)C(=O)N[C@@H](Cc1ccccc1)C(=O)N[C@@H](Cc1ccc(O)cc1)C(=O)N[C@@H](C)C(=O)N[C@@H](CS)C(=O)N[C@@H](Cc1ccccc1)C(=O)N[C@@H](CS)C(=O)O` [I24] (H-CLAFYACFC-OH) was run?
A: no effects

Q: With GRKKRRQRRRPPQ [TAT] as the molecule, how does the effect on replication (adenovirus 19a/64) read?
A: no effect

Q: What about the “effect on reporter gene expression” value (adenovirus type 5; HEK293, 24 h, Figure 3A, TAT (48–60)) of the same molecule?
A: ineffective

Q: What about the “effect on HCMV replication” value (HCMV TB40) of the same molecule?
A: no effect

Q: And the “effect on reporter gene expression in the absence of virus” value (TZM-bl reporter cells)?
A: No inhibition

Q: And the “cytotoxic effects (viable and dead cells)” value (NIH/3T3 cells)?
A: No cytotoxic effects

Q: What about the “effect on VACV wt replication” value ([1]; CV-1) of the same molecule?
A: no effect

Q: And the CPE (RSV (strain A2))?
A: no inhibition

Q: What about the effect on replication (adenovirus 5; A549, Figure S3A) of the same molecule?
A: no effect

Q: And the “UL30 transcript levels normalized to 18S rRNA” value (HSV-1 UL30 gene)?
A: No effect; also recorded: does not affect

Q: And the “cells producing virus particles” value (MCMV S-mCherry-SCP)?
A: cells producing virus particles were seen

Q: And the Plaque assay (influenza A PR8)?
A: no inhibition

Q: And the “effect on luciferase expression” value (murine CMV (MCMV))?
A: only partially decreased

Q: What about the “effects on HEK293 cell viability” value (HEK293 cells [5]) of the same molecule?
A: no effects

Q: What about the effect on replication (adenovirus 4) of the same molecule?
A: no effect

Q: What about the CPE (Varicella zoster virus) of the same molecule?
A: no inhibition

Q: What does the source list for `Nc1nc2c(ncn2COCCO)c(=O)[nH]1` [ACV, aciclovir]?
A: sensitivity of isolate to aciclovir ([2]; HSV-1 isolate 703, Figure S6A): resistance; CPE (Varicella zoster virus): 4 µM

Reference: PMC7705112, “A Novel, Broad-Acting Peptide Inhibitor of Double-Stranded DNA Virus Gene Expression and Replication” (Frontiers in Microbiology, 2020)
